Literature values as cited in patent US20200179352A1, “USE OF VALBENAZINE FOR TREATING LEVODOPA-INDUCED DYSKINESIA” (Neurocrine Biosciences, Inc., priority 2017, published 2020).

Settings: series of 448 patients with various hyperkinetic movement disorders treated with tetrabenazine from 1997-2004

SMILES: COc1cc2c(cc1OC)C1CC(=O)C(CC(C)C)CN1CC2 (stereo not shown) [tetrabenazine, 3-isobutyl-9,10-dimethoxy-1,3,4,6,7,11b-hexahydro-2H-pyrido[2,1-a]isoquinolin-2-one]
- adverse event rate for parkinsonism: 15.4%
